Data: patent publication US8772499B2, “TRPV3 modulators” (AbbVie Inc., priority 2011, dated 2014)

Key:
TRPV3 = TRPV3 agonist, relatively weak and nonspecific across TRPs; cited from earlier work
[1] = In vitro rat microsomal stability assay; format: in vitro ADME, rat (Sprague-Dawley); conditions: Sprague-Dawley, rat, microsomes, 0.5 h, 0.5 μM, pH 7.4
Method in brief: (§1)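 Compound incubated at 37 °C with NADPH-supplemented liver microsomes, either human or from Sprague-Dawley rat, to assess metabolic stability.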

human TRPV3 = target: T1, human TRPV3 (Homo sapiens, UniProt Q8NET8); test: In vitro antagonism of recombinant human TRPV3 activation (FLIPR Tetra calcium assay); format: cell-based; conditions: HEK293 cells stably expressing human TRPV3; agonist 2-APB at 80 μM; actual measured value shown parenthetically; in most cases average of at least two runs; read-out: IC50
T1 construct: expressed in transfected cells
T1 sequence (Q8NET8 1-790): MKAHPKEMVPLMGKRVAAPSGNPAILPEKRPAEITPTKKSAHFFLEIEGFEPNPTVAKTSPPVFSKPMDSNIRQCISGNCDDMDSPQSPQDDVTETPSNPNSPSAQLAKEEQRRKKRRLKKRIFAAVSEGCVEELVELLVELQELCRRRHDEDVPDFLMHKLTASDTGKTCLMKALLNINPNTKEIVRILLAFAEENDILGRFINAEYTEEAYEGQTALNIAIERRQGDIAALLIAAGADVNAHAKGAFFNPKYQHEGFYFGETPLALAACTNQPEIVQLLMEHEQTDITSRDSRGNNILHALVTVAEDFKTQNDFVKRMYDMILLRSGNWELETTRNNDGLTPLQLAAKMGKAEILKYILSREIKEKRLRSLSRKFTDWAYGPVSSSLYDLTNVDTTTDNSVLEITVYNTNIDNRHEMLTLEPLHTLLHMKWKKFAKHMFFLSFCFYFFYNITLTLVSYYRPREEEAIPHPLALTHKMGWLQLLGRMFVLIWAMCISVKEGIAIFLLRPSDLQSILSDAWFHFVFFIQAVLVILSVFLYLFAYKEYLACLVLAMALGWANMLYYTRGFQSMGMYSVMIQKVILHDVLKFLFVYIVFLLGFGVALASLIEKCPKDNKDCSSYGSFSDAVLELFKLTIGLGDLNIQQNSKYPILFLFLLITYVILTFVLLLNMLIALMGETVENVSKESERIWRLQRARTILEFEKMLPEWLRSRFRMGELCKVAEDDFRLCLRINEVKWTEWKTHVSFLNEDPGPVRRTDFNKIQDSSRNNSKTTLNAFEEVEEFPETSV
Method in brief: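 Calcium flux read over a 10 min run: compound added at 10 s to Calcium-4-loaded human TRPV3-HEK293 cells, agonist 2-APB (80 μM, its EC80) after 3 min. IC50 derived from peak-minus-baseline signal as percentage of uninhibited 2-APB response, typically averaged over at least two runs.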

[2] = In vitro human microsomal stability assay; format: in vitro ADME; conditions: human, microsomes, 0.5 h, 0.5 μM, pH 7.4
Method in brief: as §1

[3] = test system: chronic constriction injury (CCI) model of neuropathic pain; test: In vivo chronic constriction injury (CCI) model of neuropathic pain, mechanical allodynia (von Frey); set-up: species or system CD1 mice; conditions: Mus musculus, po, 1 h, 100 mg/kg oral dose, mechanical allodynia 1 hour after dosing, CCI mice, average of eight mice; vehicle 0%, control 100%; read-out: % EFFECT
Experimental: Test compounds were evaluated for analgesic effect in an in vivo chronic constriction injury (CCI) model of neuropathic pain. CD1 mice (Charles River) were used for these studies. Prior to testing (2-4 weeks) animals underwent a surgical procedure consisting of approximately 3 loose ligatures around the sciatic nerve. Following sterilization procedures, under isofluorane anesthetic, a 1.5 cm incision was made dorsal to the pelvis. The biceps femoris and gluteous superficialis (right side) were separated and the sciatic nerve exposed, isolated, and 2-4 loose ligatures (5-0 chromic gut) with less than 1 mm spacing were placed around it. Following hemostasis, the wound was sutured (layer of muscle closed with 5-0 nylon suture, and the wound closed with surgical staples) and coated with iodine. The mice were allowed to recover on a warming plate and were returned to their home cages (soft bedding) when able to walk on their own.
Two to four weeks after the surgery, test compound was administered orally (PO) in these mice, and mechanical allodynia was evaluated 1 hour after oral dosing where the threshold to response was assessed using calibrated von Frey monofilaments. The von Frey monofilaments were applied to the hind paw at increasing forces until the animal responded by lifting its paw. Normally, the force of the von Frey monofilament was innocuous and only in the altered state (allodynia or hyperalgesia) did the animals respond to this stimulation. […] At the end of the experiment, after behavioral testing, plasma (and in some instances brain tissue) was taken for exposure analysis.
Each test compound was evaluated in eight different mice. The data reported in Table 3 represent the average value of the approximate percent effect of each compound in relieving neuropathic pain in mice receiving 100 mg/kg oral dose of the test compound. The grams of force needed to elicit a withdrawal response from the injured mouse that was challenged with vehicle was assigned a 0% effect, while the grams of force needed to elicit a withdrawal response from the control was given a 100% effect.

c1ccc(B(OB(c2ccccc2)c2ccccc2)c2ccccc2)cc1 [DPBA, diphenylboronic anhydride]
EC50 (TRPV3): ~40 µM

NCCOB(c1ccccc1)c1ccccc1 [Example 2-APB, 2-aminoethoxydiphenylborate]
EC50 (TRPV3): ~40 µM

OC1CC(c2ccnc(C(F)(F)F)c2)(C(O)c2ccccn2)C1 [Example 306, trans-3-[(S)-hydroxy(pyridin-2-yl)methyl]-3-[2-(trifluoromethyl)pyridin-4-yl]cyclobutanol]
RAT MICROSOMAL STABILITY (% REMAINING AFTER 30 MINUTES) [1]: >85%
IC50 (human TRPV3): 0.14 µM
HUMAN MICROSOMAL STABILITY (% REMAINING AFTER 30 MINUTES) [2]: >85%
inhibition in vivo at 100 mg/kg [3]: 0%
